Measured values from patent US12053527B2, “Compositions with permeation enhancers for drug delivery” (priority 2015, dated 2024).

Experiments:
[1] = Linear oscillatory shear rheology (gelation temperature, storage and loss moduli); conditions: for effect on plateau values of G′ and G″ / mechanical properties and gelation temperature: CPE added separately to Cip-18% [P407-PBP]; for reduction of gelation temperature: CPE added separately to Cip-18% [P407-PBP] (1% SDS, 2% limonene or 0.5% bupivacaine)
[2] = Pharmacokinetics in the OM model: ciprofloxacin in middle ear fluid and plasma; format: in vivo, chinchilla; conditions: animals treated with the standard formulation
[3] = test system: non-typable H. influenzae (NTHi); conditions: cited from earlier work
S. pneumoniae = conditions: cited from earlier work
[4] = Ex vivo permeation of ciprofloxacin across the tympanic membrane
[5] = 2% limonene added to Cip-18% [P407-PBP]

Structure (SMILES): CCCCN1CCCCC1C(=O)Nc1c(C)cccc1C (centres unmarked) [Bupivacaine]
- effect on plateau values of G′ and G″ / mechanical properties and gelation temperature [1]: minimal effects

Structure (SMILES): CCCCCCCCCCCCOS(=O)(=O)[O-].[Na+] [SDS, Sodium dodecyl sulfate]
- effect on plateau values of G′ and G″ / mechanical properties and gelation temperature [1]: did not affect
- reduction of gelation temperature [1]: ~1.5 °C

Structure (SMILES): O=C(O)c1cn(C2CC2)c2cc(N3CCNCC3)c(F)cc2c1=O [ciprofloxacin]
- ciprofloxacin in the blood [2]: undetectable
- MIC for non-typable H. influenzae (NTHi) [3]: <0.1 to 0.5 µg/mL
- minimum inhibitory concentration (MIC) of NTHi [3]: 0.1 to 0.5 µg/mL
- minimum inhibitory concentration for H. influenza middle ear infections [3]: about 4 μg/mL
- MIC for S. pneumoniae (S. pneumoniae): 0.5 to 4 µg/mL
- minimum inhibitory concentration for S. pneumoniae middle ear infections (S. pneumoniae): about 4 μg/mL

Structure (SMILES): C=C(C)[C@H]1CC=C(C)CC1 [limonene]
- concentration-dependent increase in ciprofloxacin transfer ([4]; 48 hours, limonene added): two-to-three-fold
- time at which ciprofloxacin was detected in the receiving buffer ([4]; limonene added to ciprofloxacin): 1 to 2 h
- decrease of G″ [1, 5]: 4.1 kPa
- increase of G′ [1, 5]: 10.5 kPa
- reduction of gelation temperature [1]: 14 °C
